Laboratory results as given in patent publication US20160271263A1 (Novo Nordisk A/S, priority 2010, published 2016).
Numbered stars: 1 amine (or outer) side, 2 acyl side, 3 side chain; on linkers, the order of the positions; unused ones are H or OH. Square brackets hold non-standard residues; d marks the D form. Side chains are listed from the residue outwards. Peptide text beside a SMILES is read from it. * marks the point of attachment. C18 diacid = O=C(O)CCCCCCCCCCCCCCCCC(=O)*; γGlu = O=C(O)[C@H](CCC(=O)[*:2])N[*:1]; AEEA = NCCOCCOCC(=O)O

Molecular target: glucagon receptor (Homo sapiens, UniProt P47871)
Sequence (P47871 26-477): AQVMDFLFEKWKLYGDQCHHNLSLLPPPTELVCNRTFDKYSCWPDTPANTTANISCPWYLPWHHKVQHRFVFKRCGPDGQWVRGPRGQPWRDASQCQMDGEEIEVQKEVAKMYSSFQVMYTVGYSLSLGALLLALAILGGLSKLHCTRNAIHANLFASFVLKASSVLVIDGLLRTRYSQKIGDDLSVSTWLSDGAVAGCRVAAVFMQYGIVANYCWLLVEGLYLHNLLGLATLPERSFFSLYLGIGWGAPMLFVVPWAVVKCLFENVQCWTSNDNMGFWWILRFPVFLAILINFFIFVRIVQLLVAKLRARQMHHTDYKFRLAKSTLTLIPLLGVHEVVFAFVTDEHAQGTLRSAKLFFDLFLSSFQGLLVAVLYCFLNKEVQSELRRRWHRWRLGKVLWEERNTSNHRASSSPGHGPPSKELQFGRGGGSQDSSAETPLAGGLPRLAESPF
Test: cell-based

EC50 [nM] | Structure (SMILES)
0.192 | CSCC[C@H](NC(=O)[C@H](CC(C)C)NC(=O)[C@H](Cc1c[nH]c2ccccc12)NC(=O)[C@H](CCC(N)=O)NC(=O)[C@@H](NC(=O)[C@H](Cc1ccccc1)NC(=O)[C@H](CC(=O)O)NC(=O)[C@H](CCCNC(=N)N)NC(=O)[C@H](C)NC(=O)[C@H](CCCNC(=N)N)NC(=O)[C@H](CCC(N)=O)NC(=O)[C@H](CCC(=O)O)NC(=O)[C@H](CC(=O)O)NC(=O)[C@H](CC(C)C)NC(=O)[C@H](Cc1ccc(O)cc1)NC(=O)[C@H](CCCCN)NC(=O)[C@H](CO)NC(=O)[C@H](Cc1ccc(O)cc1)NC(=O)[C@H](CC(=O)O)NC(=O)[C@H](CO)NC(=O)[C@@H](NC(=O)[C@H](Cc1ccccc1)NC(=O)[C@@H](NC(=O)CNC(=O)[C@H](CCC(N)=O)NC(=O)[C@H](CO)NC(=O)[C@@H](N)Cc1c[nH]cn1)[C@@H](C)O)[C@@H](C)O)C(C)C)C(=O)N[C@@H](CC(N)=O)C(=O)N[C@H](C(=O)N[C@@H](CCCCNC(=O)COCCOCCNC(=O)COCCOCCNC(=O)CC[C@H](NC(=O)CCCCCCCCCCCCCCCCC(=O)O)C(=O)O)C(N)=O)[C@@H](C)O [Example 26, N^α ([Glu^16,Gln^17,Arg^20] Glucagonyl) N^ε-([2-[2-[2-[[2-[2-[2-[[(4S)-5-hydroxy-4-[(18-hydroxy-18-oxooctadecanoyl)amino]-5-oxopentanoyl]amino]ethoxy]ethoxy]acetyl]amino]ethoxy]ethoxy]acetyl]) Lysinyl amide] (H-HSQGTFTSDYSKYLDEQRARDFVQWLMNTK([AEEA-AEEA-γGlu-C18 diacid])-NH2; N-terminus assumed)
0.007 | CC(C)C[C@H](NC(=O)[C@H](Cc1ccc(O)cc1)NC(=O)[C@H](CCCCN)NC(=O)[C@H](CO)NC(=O)[C@H](Cc1ccc(O)cc1)NC(=O)[C@H](CC(=O)O)NC(=O)[C@H](CO)NC(=O)[C@@H](NC(=O)[C@H](Cc1ccccc1)NC(=O)[C@@H](NC(=O)CNC(=O)[C@H](CCC(N)=O)NC(=O)[C@H](CO)NC(=O)[C@@H](N)Cc1c[nH]cn1)[C@@H](C)O)[C@@H](C)O)C(=O)N[C@@H](CC(=O)O)C(=O)N[C@@H](CO)C(=O)N[C@@H](CCCCN)C(=O)N[C@@H](CCCNC(=N)N)C(=O)N[C@@H](C)C(=O)N[C@@H](CCC(N)=O)C(=O)N[C@@H](CCC(=O)O)C(=O)N[C@@H](Cc1ccccc1)C(=O)N[C@H](C(=O)N[C@@H](CCC(N)=O)C(=O)N[C@@H](Cc1c[nH]c2ccccc12)C(=O)N[C@@H](CC(C)C)C(=O)N[C@@H](CCCCNC(=O)COCCOCCNC(=O)COCCOCCNC(=O)CC[C@H](NC(=O)CCCCCCCCCCCCCCCCC(=O)O)C(=O)O)C(=O)N[C@@H](CC(N)=O)C(=O)N[C@H](C(N)=O)[C@@H](C)O)C(C)C [Example 45, N^ε27 ([2-[2-[2-[[2-[2-[2-[[(4S)-5-hydroxy-4-[(18-hydroxy-18-oxooctadecanoyl)amino]-5-oxopentanoyl]amino]ethoxy]ethoxy]acetyl]amino]ethoxy]ethoxy]acetyl]) [Lys^17, Glu^21, Lys^27] Glucagon peptide amide] (H-HSQGTFTSDYSKYLDSKRAQEFVQWLK([AEEA-AEEA-γGlu-C18 diacid])NT-NH2; N-terminus assumed)
0.022 | CC(C)C[C@H](NC(=O)[C@H](Cc1ccc(O)cc1)NC(=O)[C@H](CCCCN)NC(=O)[C@H](CO)NC(=O)[C@H](Cc1ccc(O)cc1)NC(=O)[C@H](CC(=O)O)NC(=O)[C@H](CO)NC(=O)[C@@H](NC(=O)[C@H](Cc1ccccc1)NC(=O)[C@@H](NC(=O)CNC(=O)[C@H](CCC(N)=O)NC(=O)[C@H](CO)NC(=O)[C@@H](N)Cc1c[nH]cn1)[C@@H](C)O)[C@@H](C)O)C(=O)N[C@@H](CC(=O)O)C(=O)N[C@@H](CO)C(=O)N[C@@H](CCCNC(=N)N)C(=O)N[C@@H](CCCNC(=N)N)C(=O)N[C@@H](C)C(=O)N[C@@H](CCC(N)=O)C(=O)N[C@@H](CC(=O)O)C(=O)N[C@@H](Cc1ccccc1)C(=O)N[C@H](C(=O)N[C@@H](CCC(N)=O)C(=O)N[C@@H](Cc1c[nH]c2ccccc12)C(=O)N[C@@H](CC(C)C)C(=O)N[C@@H](CC(C)C)C(=O)N[C@@H](CCCCNC(=O)COCCOCCNC(=O)COCCOCCNC(=O)CC[C@H](NC(=O)CCCCCCCCCCCCCCCCC(=O)O)C(=O)O)C(=O)N[C@H](C(=O)O)[C@@H](C)O)C(C)C [Example 8]
0.058 | CC(C)C[C@H](NC(=O)[C@H](Cc1ccc(O)cc1)NC(=O)[C@H](CCCCN)NC(=O)[C@H](CO)NC(=O)[C@H](Cc1ccc(O)cc1)NC(=O)[C@H](CC(=O)O)NC(=O)[C@H](CO)NC(=O)[C@@H](NC(=O)[C@H](Cc1ccccc1)NC(=O)[C@@H](NC(=O)CNC(=O)[C@H](CCC(N)=O)NC(=O)[C@H](CO)NC(=O)[C@@H](N)Cc1c[nH]cn1)[C@@H](C)O)[C@@H](C)O)C(=O)N[C@@H](CC(=O)O)C(=O)N[C@@H](CO)C(=O)N[C@@H](CCCNC(=N)N)C(=O)N[C@@H](CCCNC(=N)N)C(=O)N[C@@H](C)C(=O)N[C@@H](CCCCNC(=O)CC[C@H](NC(=O)CC[C@H](NC(=O)COCCOCCNC(=O)COCCOCCNC(=O)CC[C@H](NC(=O)CCCCCCCCCCCCCCCCC(=O)O)C(=O)O)C(=O)O)C(=O)O)C(=O)N[C@@H](CC(=O)O)C(=O)N[C@@H](Cc1ccccc1)C(=O)N[C@H](C(=O)N[C@@H](CCC(N)=O)C(=O)N[C@@H](Cc1c[nH]c2ccccc12)C(=O)N[C@@H](CC(C)C)C(=O)N[C@@H](CC(C)C)C(=O)N[C@@H](CC(N)=O)C(=O)N[C@H](C(=O)O)[C@@H](C)O)C(C)C [Example 98, N^ε20-[(4S)-4-carboxy-4-[[(4S)-4-carboxy-4-[[2-[2-[2-[[2-[2-[2-[[(4S)-4-carboxy-4-(17-carboxyheptadecanoylamino)butanoyl]amino]ethoxy]ethoxy]acetyl]amino]ethoxy]ethoxy]acetyl]amino]butanoyl]amino]butanoyl]-[Lys^20,Leu^27]-Glucagon]
0.081 | CC(C)C[C@H](NC(=O)[C@H](Cc1ccc(O)cc1)NC(=O)[C@H](CCCCN)NC(=O)[C@H](CO)NC(=O)[C@H](Cc1ccc(O)cc1)NC(=O)[C@H](CC(=O)O)NC(=O)[C@H](CO)NC(=O)[C@@H](NC(=O)[C@H](Cc1ccccc1)NC(=O)[C@@H](NC(=O)CNC(=O)[C@H](CCC(N)=O)NC(=O)[C@H](CO)NC(=O)[C@@H](N)Cc1c[nH]cn1)[C@@H](C)O)[C@@H](C)O)C(=O)N[C@@H](CC(=O)O)C(=O)N[C@@H](CCCCNC(=O)COCCOCCNC(=O)COCCOCCNC(=O)CC[C@H](NC(=O)CC[C@H](NC(=O)CC[C@H](NC(=O)CCCCCCCCCCCCCCCCC(=O)O)C(=O)O)C(=O)O)C(=O)O)C(=O)N[C@@H](CCCNC(=N)N)C(=O)N[C@@H](CCCNC(=N)N)C(=O)N[C@@H](C)C(=O)N[C@@H](CCC(N)=O)C(=O)N[C@@H](CC(=O)O)C(=O)N[C@@H](Cc1ccccc1)C(=O)N[C@H](C(=O)N[C@@H](CCC(N)=O)C(=O)N[C@@H](Cc1c[nH]c2ccccc12)C(=O)N[C@@H](CC(C)C)C(=O)N[C@@H](CC(C)C)C(=O)N[C@@H](CC(N)=O)C(=O)N[C@H](C(=O)O)[C@@H](C)O)C(C)C [Example 77, N^ε16-[2-[2-[2-[[2-[2-[2-[[(4S)-4-carboxy-4-[[(4S)-4-carboxy-4-[[(4S)-4-carboxy-4-(17-carboxyheptadecanoylamino)butanoyl]amino]butanoyl]amino]butanoyl]amino]ethoxy]ethoxy]acetyl]amino]ethoxy]ethoxy]acetyl]-[Lys^16,Leu^27]-Glucagon] (H-HSQGTFTSDYSKYLDK([AEEA-AEEA-γGlu-γGlu-γGlu-C18 diacid])RRAQDFVQWLLNT-OH; N-terminus and C-terminus assumed)
0.137 | CC(C)C[C@H](NC(=O)[C@H](Cc1ccc(O)cc1)NC(=O)[C@H](CCCCN)NC(=O)[C@H](CO)NC(=O)[C@H](Cc1ccc(O)cc1)NC(=O)[C@H](CC(=O)O)NC(=O)[C@H](CO)NC(=O)[C@@H](NC(=O)[C@H](Cc1ccccc1)NC(=O)[C@@H](NC(=O)CNC(=O)[C@H](CCC(N)=O)NC(=O)[C@@H](CO)NC(=O)[C@@H](N)Cc1c[nH]cn1)[C@@H](C)O)[C@@H](C)O)C(=O)N[C@@H](CC(=O)O)C(=O)N[C@@H](CCC(=O)O)C(=O)N[C@@H](CCC(N)=O)C(=O)N[C@@H](C)C(=O)N[C@@H](C)C(=O)N[C@@H](CCCNC(=N)N)C(=O)N[C@@H](CC(=O)O)C(=O)N[C@@H](Cc1ccccc1)C(=O)N[C@H](C(=O)N[C@@H](CCCCNC(=O)COCCOCCNC(=O)COCCOCCNC(=O)CC[C@H](NC(=O)CCCCCCCCCCCCCCCCC(=O)O)C(=O)O)C(=O)N[C@@H](Cc1c[nH]c2ccccc12)C(=O)N[C@@H](CC(C)C)C(=O)N[C@@H](CC(C)C)C(=O)N[C@@H](CC(N)=O)C(=O)N[C@H](C(N)=O)[C@@H](C)O)C(C)C [Example 30, N^ε24-([2-[2-[2-[[2-[2-[2-[[(4S)-5-hydroxy-4-[(18-hydroxy-18-oxooctadecanoyl)amino]-5-oxopentanoyl]amino]ethoxy]ethoxy]acetyl]amino]ethoxy]ethoxy]acetyl]) [D-Ser^2,Glu^16,Gln^17,Ala^18,Arg^20,Lys^24,Leu^27] Glucagon peptide amide] (H-H[dS]QGTFTSDYSKYLDEQAARDFVK([AEEA-AEEA-γGlu-C18 diacid])WLLNT-NH2; N-terminus assumed)
0.074 | CC(C)C[C@H](NC(=O)[C@H](Cc1ccc(O)cc1)NC(=O)[C@H](CCCCN)NC(=O)[C@H](CO)NC(=O)[C@H](Cc1ccc(O)cc1)NC(=O)[C@H](CC(=O)O)NC(=O)[C@H](CO)NC(=O)[C@@H](NC(=O)[C@H](Cc1ccccc1)NC(=O)[C@@H](NC(=O)CNC(=O)[C@H](CCC(N)=O)NC(=O)[C@H](CO)NC(=O)[C@@H](N)Cc1c[nH]cn1)[C@@H](C)O)[C@@H](C)O)C(=O)N[C@@H](CC(=O)O)C(=O)N[C@@H](CO)C(=O)N[C@@H](CCCNC(=N)N)C(=O)N[C@@H](CCCNC(=N)N)C(=O)N[C@@H](C)C(=O)N[C@@H](CCC(N)=O)C(=O)N[C@@H](CCC(=O)O)C(=O)N[C@@H](Cc1ccccc1)C(=O)N[C@H](C(=O)N[C@@H](CCCCNC(=O)COCCOCCNC(=O)COCCOCCNC(=O)CC[C@H](NC(=O)CCCCCCCCCCCCCCCCC(=O)O)C(=O)O)C(=O)N[C@@H](CCCNC(=N)N)C(=O)N[C@@H](CC(C)C)C(=O)N[C@@H](CC(C)C)C(=O)N[C@@H](CC(N)=O)C(=O)N[C@H](C(=O)O)[C@@H](C)O)C(C)C [Example 58, N^ε24-([2-[2-[2-[[2-[2-[2-[[(4S)-5-hydroxy-4-[(18-hydroxy-18-oxooctadecanoyl)amino]-5-oxopentanoyl]amino]ethoxy]ethoxy]acetyl]amino]ethoxy]ethoxy]acetyl]) [Glu^21,Lys^24,Arg^25,Leu^27] Glucagon]
